Data from patent publication US11091494B2, “Crystal form of acalabrutinib and preparation method and use thereof” (Crystal Pharmaceutical (Suzhou) Co., Ltd., priority 2018, dated 2021).

How the values were obtained:
Format in all cases: physicochemical
[1] = Stability of crystalline form on storage, checked by XRPD; conditions: for Solid form: XRPD; for Chemical purity on storage: at least 2 months
Method: Approximately 10 mg of Form A of the present disclosure was weighed and stored at different conditions of 25° C./60% RH in open dish, 25° C./60% RH in closed dish, 40° C./75% RH in open dish, and 40° C./75% RH in closed dish. Crystalline forms were checked by XRPD.
Approximately 10 mg of Form D of the present disclosure was weighed and stored at different conditions of 25° C./60% RH in closed dish, 25° C./60% RH in open dish, 40° C./75% RH in closed dish. Crystalline form was checked by XRPD.
Approximately 10 mg of Form F of the present disclosure was weighed and stored at different conditions of 25° C./60% RH in closed dish, 25° C./60% RH in open dish, and 40° C./75% RH in closed dish, 40° C./75% RH in open dish. Crystalline forms were checked by XRPD.
Approximately 10 mg of Form G of the present disclosure was weighed and stored at 25° C./60% RH in closed dish. Crystalline forms were checked by XRPD.
Approximately 10 mg of Form CS15 of the present disclosure was weighed and stored at different conditions of 25° C./60% RH in open dish, 25° C./60% RH in closed dish. Crystalline forms were checked by XRPD.

[2] = Compressibility (tensile strength of compressed tablet); conditions: about 80 mg, φ6 mm round tooling, compressed at 10 kN
Method: Approximately 80 mg of Form A and Form I in WO2017002095A1 were weighed into the dies of a φ6 mm round tooling, compressed at 10 kN manually, then stored in a desiccator for 24 hours until complete elastic recovery. Radial crushing force (hardness, H) was tested with an intelligent tablet hardness tester. Diameter (D) and thickness (L) were tested with a caliper. Tensile strength of the powder that with different hardness was calculated with the following formula: T=2H/πDL. Under a certain force, the greater the tensile strength, the better the compressibility.
Approximately 80 mg of Form D and Form I in WO2017002095A1 were weighed into the dies of a φ6 mm round tooling, compressed at 10 kN manually, and then stored in a desiccator for 24 hours until complete elastic recovery. Radial crushing force (hardness, H) was tested with an intelligent tablet hardness tester. Diameter (D) and thickness (L) were tested with a caliper. Tensile strength of the powder with different hardness was calculated with the following formula: T=2H/πDL. Under a certain force, the greater the tensile strength, the better the compressibility.
Approximately 80 mg of Form F and Form I in WO2017002095A1 were weighed into the dies of a φ6 mm round tooling, compressed at 10 kN manually, and then stored in a desiccator for 24 hours until complete elastic recovery. Radial crushing force (hardness, H) was tested with an intelligent tablet hardness tester. Diameter (D) and thickness (L) were tested with caliper. Tensile strength of the powder with different hardness was calculated with the following formula: T=2H/πDL. Under a certain force, the greater the tensile strength, the better the compressibility.
Approximately 80 mg of Form G and Form I of WO2017002095A1 were weighed into the dies of a φ6 mm round tooling, compressed at 10 kN manually, and then stored in a desiccator for 24 hours until complete elastic recovery. Radial crushing force (hardness, H)) was tested with an intelligent tablet hardness tester. Diameter (D) and thickness (L) were tested with caliper. Tensile strength of the powder with different hardness was calculated with the following formula: T=2H/πDL. Under a certain force, the greater the tensile strength, the better the compressibility.
Approximately 80 mg of Form CS15 and Form I in WO2017002095A1 were weighed into the dies of a φ6 mm round tooling, compressed at 10 kN manually, and then stored in a desiccator for 24 hours until complete elastic recovery. Radial crushing force (hardness, H) was tested with an intelligent tablet hardness tester. Diameter (D) and thickness (L) were tested with caliper. Tensile strength of the powder with different hardness was calculated with the following formula: T=2H/πDL. Under a certain force, the greater the tensile strength, the better the compressibility.

[3] = Adhesiveness (amount of material sticking to the punch); conditions: about 30 mg, φ8 mm round tooling, 10 kN, compression repeated twice
Method: Approximately 30 mg of Form A and Form I in WO2017002095A1 were weighed, added into the dies of a φ8 mm round tooling, compressed at 10 kN and held for about 30 s. The amount of material sticking to the punch was weighed. The compression was repeated twice and the cumulative amount and average amount of material sticking to the punch during the compression were recorded.
Approximately 30 mg of Form F and Form I in WO2017002095A1 were weighed, added into the dies of a φ8 mm round tooling, compressed at 10 kN and held for about 30 s. The amount of material sticking to the punch was weighed. The compression was repeated twice and the cumulative amount and average amount of material sticking to the punch during the compression were recorded.
Approximately 30 mg of Form G and Form I in WO2017002095A1 were weighed, added into the dies of a φ8 mm round tooling, compressed at 10 kN and held for about 30 s. The amount of material sticking to the punch was weighed. The compression was repeated twice and the cumulative amount and average amount of material sticking to the punch during the compression were recorded.

[4] = 25° C./60% RH in closed dish, 2 months
[5] = 25° C./60% RH in open and closed dishes
[6] = 25° C./60% RH in open dish, 2 months
[7] = 40° C./75% RH in closed dish, 2 months
[8] = 40° C./75% RH in open dish, 2 months

SMILES: CC#CC(=O)N1CCC[C@H]1c1nc(-c2ccc(C(=O)Nc3ccccn3)cc2)c2c(N)nccn12 [Form A, (S)-4-(8-amino-3-(1-(but-2-ynoyl)pyrrolidin-2-yl)imidazo[1,5-a]pyrazin-1-yl)-N-(pyridin-2-yl)benzamide]
- Time kept stable (crystalline state doesn't change) ([1]; 25° C./60% RH in closed dish): at least 2 months
- Solid form [1, 4]: Form A
- Chemical purity on storage [1, 5]: remains substantially unchanged
- Time kept stable (crystalline state doesn't change) ([1]; 25° C./60% RH in open dish): at least 2 months
- Solid form [1, 6]: Form A
- Time kept stable (crystalline state doesn't change) ([1]; 40° C./75% RH in closed dish): at least 2 months
- Solid form [1, 7]: Form A
- Time kept stable (crystalline state doesn't change) ([1]; 40° C./75% RH in open dish): at least 2 months
- Solid form [1, 8]: Form A
- Solid form ([1]; Initial): Form A
- Tensile strength [2]: 1.35 MPa
- Average amount (material sticking to the punch) [3]: 40 µg
- Cumulative amount (material sticking to the punch) [3]: 80 µg

SMILES: CC#CC(=O)N1CCC[C@H]1c1nc(-c2ccc(C(=O)Nc3ccccn3)cc2)c2c(N)nccn12 [Form CS15, (S)-4-(8-amino-3-(1-(but-2-ynoyl)pyrrolidin-2-yl)imidazo[1,5-a]pyrazin-1-yl)-N-(pyridin-2-yl)benzamide]
- Time kept stable (crystalline state doesn't change) ([1]; 25° C./60% RH in closed dish): at least 2 months
- Solid form [1, 4]: Form CS15
- Chemical purity on storage [1, 5]: remains substantially unchanged
- Time kept stable (crystalline state doesn't change) ([1]; 25° C./60% RH in open dish): at least 2 months
- Solid form [1, 6]: Form CS15
- Solid form ([1]; Initial): Form CS15
- Tensile strength [2]: 1.18 MPa

SMILES: CC#CC(=O)N1CCC[C@H]1c1nc(-c2ccc(C(=O)Nc3ccccn3)cc2)c2c(N)nccn12 [Form F, (S)-4-(8-amino-3-(1-(but-2-ynoyl)pyrrolidin-2-yl)imidazo[1,5-a]pyrazin-1-yl)-N-(pyridin-2-yl)benzamide]
- Time kept stable (crystalline state doesn't change) ([1]; 25° C./60% RH in closed dish): at least 2 months
- Solid form [1, 4]: Form F
- Chemical purity on storage [1, 5]: remains substantially unchanged
- Time kept stable (crystalline state doesn't change) ([1]; 25° C./60% RH in open dish): at least 2 months
- Solid form [1, 6]: Form F
- Time kept stable (crystalline state doesn't change) ([1]; 40° C./75% RH in closed dish): at least 2 months
- Solid form [1, 7]: Form F
- Time kept stable (crystalline state doesn't change) ([1]; 40° C./75% RH in open dish): at least 2 months
- Solid form [1, 8]: Form F
- Tensile strength [2]: 1.02 MPa
- Average amount (material sticking to the punch) [3]: 30 µg
- Cumulative amount (material sticking to the punch) [3]: 60 µg

SMILES: CC#CC(=O)N1CCC[C@H]1c1nc(-c2ccc(C(=O)Nc3ccccn3)cc2)c2c(N)nccn12 [Form G, (S)-4-(8-amino-3-(1-(but-2-ynoyl)pyrrolidin-2-yl)imidazo[1,5-a]pyrazin-1-yl)-N-(pyridin-2-yl)benzamide]
- Time kept stable (crystalline state doesn't change) ([1]; 25° C./60% RH in closed dish): at least 2 months
- Solid form [1, 4]: Form G
- Chemical purity on storage ([1]; 25° C./60% RH in closed dish): remains substantially unchanged
- Solid form ([1]; Initial): Form G
- Tensile strength [2]: 1.62 MPa
- Average amount (material sticking to the punch) [3]: 30 µg
- Cumulative amount (material sticking to the punch) [3]: 60 µg
